Assay results as given in patent US20250144216A1, “NEAR-INFRARED PHOTODYNAMIC THERAPY USING SECOND HARMONIC GENERATION NANOPARTICLE AND VISIBLE LIGHT REACTIVE PHOTOSENSITIZER” (ARIEL SCIENTIFIC INNOVATIONS LTD., priority 2022, published 2025).

Tests used:
[1] = tested on: S. aureus (ATCC 25923); assay: Dark toxicity, viability of S. aureus (CFU count); type: cell-based; conditions: dark conditions; compared to the control
Description: S. aureus (ATCC 25923) were grown on Brain Heart agar plates (BHA, Acumedia, Lansing, MI, USA) for 24 hours. […] 200 μl Cell suspensions in 0.9% saline (10^3-10^4 cells/ml) in sterile saline solution were incubated with 20 μl of PDT nanoparticle conjugates (400 μg/ml) in the dark with shaking for 30 minutes. Subsequently, aliquots of each sample (100 μl) were spread over BHA plates with a Drigalsky spreader and incubated at 37° C. for 24 h. The colony forming units (CFU) were counted using a colony counter Scan 500 (Interscience, Saint-Nom-la-Breteche, France).

[2] = tested on: S. aureus (ATCC 25923); assay: microbe, parasite or virus in culture; type: cell-based
Description: Laser Setup—Laser was generated using Millennia® Pro s Series 5SJSPG (Spectra physics, USA) laser setup to generate a […] continuous wave laser which was passed through an ultra-fast oscillator Femtosource® Scientific 20 (Femtolasers, Inc.) to generate the Near Infrared (800 nm) pulsed wave (pulse frequency 76.9 MHz) beamline. The beamline was appropriately arranged to provide real-time power readings using a beam splitter. Power measurements were recorded using a compact power meter PM100D (Thorlabs, Inc.) with S370C thermal power head (Thorlabs, Inc.)).
S. aureus (ATCC 25923) were grown on Brain Heart agar plates (BHA, Acumedia, Lansing, MI, USA) for 24 hours. Grown cells were transferred into Brain Heart broth (BH, Acumedia, Lansing, MI, USA) and incubated at 37±1° C. with shaking at 170 rpm until reaching the absorbance A=0.10±0.02 at 660 nm, corresponding to a final concentration of 10^8 cells/ml and diluted appropriately to the final concentration of 10^3-10^4 cells/ml with commercially available sterile 0.9% saline solution before the light and dark phototoxicity assays.
200 μl bacterial suspensions in 0.9% sterile saline solution (10^3-10^4 cells/μl) were incubated with 20 μl of PDT nanoparticle conjugates (400 μg/ml) under laser (800 nm, 232-228 mW,76.9 MHz) with shaking for 10 minutes. […] The CFUwere counted using a colony counter Scan 500.

Compound	increase in viability of S. aureus [1] [%]	viability of S. aureus increased by ([2]; 10 minutes pulsed NIR (800 nm) laser exposure) [%]	inhibition at 400 µg/mL ([2]; Staphylococcus aureus, ATCC25923, 10 min, read-out: viability of S. aureus reduced by) [%]
COc1cc(/C=C/C(=O)CC(=O)/C=C/c2ccc(O)c(OC)c2)ccc1O [Curcumin, curcumin]	14.2±1.1	20.2±1.4	–
C=CC1=C(C)c2cc3[nH]c(cc4nc(cc5[nH]c(cc1n2)c(C)c5CCC(=O)O)C(CCC(=O)O)=C4C)c(C)c3C=C [PPIX, protoporphyrin IX]	–	–	20.4 ± 2.5
